In data set [1] the target is T1, hSEP (sol hu)(his)6; His6-tagged hSEP ectodomain (Homo sapiens, UniProt Q495T6).
T1 construct: His6-tagged hSEP ectodomain; His6; purchased Innogenetics, Ghent, Belgium
T1 sequence (Q495T6 49-779 limits assumed): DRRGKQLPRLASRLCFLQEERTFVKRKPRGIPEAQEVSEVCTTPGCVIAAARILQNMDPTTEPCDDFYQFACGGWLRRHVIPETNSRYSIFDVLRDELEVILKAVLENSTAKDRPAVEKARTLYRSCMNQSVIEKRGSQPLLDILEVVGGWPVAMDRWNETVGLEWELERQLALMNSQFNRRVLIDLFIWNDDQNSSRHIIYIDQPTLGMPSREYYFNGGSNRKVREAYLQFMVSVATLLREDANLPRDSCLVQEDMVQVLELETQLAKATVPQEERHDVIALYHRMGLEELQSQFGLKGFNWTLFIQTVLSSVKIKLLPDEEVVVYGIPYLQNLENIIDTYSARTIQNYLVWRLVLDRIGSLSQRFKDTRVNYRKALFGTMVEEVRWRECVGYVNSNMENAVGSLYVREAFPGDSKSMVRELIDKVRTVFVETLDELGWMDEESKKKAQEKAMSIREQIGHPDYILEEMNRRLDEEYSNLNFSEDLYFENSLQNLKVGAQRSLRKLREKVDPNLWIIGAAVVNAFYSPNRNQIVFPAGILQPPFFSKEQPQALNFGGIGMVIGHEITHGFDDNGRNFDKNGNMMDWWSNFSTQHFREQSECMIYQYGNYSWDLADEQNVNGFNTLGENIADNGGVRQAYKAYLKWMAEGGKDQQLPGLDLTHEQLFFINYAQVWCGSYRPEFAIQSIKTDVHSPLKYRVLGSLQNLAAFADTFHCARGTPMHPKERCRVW
The experiment in a line: Enzymatic breakdown of CNP and VIP by hSEP and its inhibition, in vitro, HPLC. Type of data set: biochemical. The settings on record: no inhibitor, 37° C. How it is done:
The inhibition of the enzymatic breakdown of CNP and VIP by the compounds used according to the invention was measured in an enzymatic in vitro assay according to the following protocol:
All test compounds were dissolved in DMSO at 10 mM and further diluted with assay buffer.
80 μl of assay buffer, 10 μl of enzyme working solution (NEP or hSEP) and 10 μl of peptide stock solution (VIP or CNP) were mixed in an Eppendorf vial and incubated for 120 min. at 37° C. The enzymatic reaction was subsequently terminated by heating to 95° C. for 5 min. After centrifugation (Heraeus Biofuge B, 3 min) the supernatant was subjected to HPLC.
70 μl of assay buffer, 10 μl of enzyme working solution (NEP or hSEP) and 10 μl of a test compound solution were mixed in an Eppendorf vial and preincubated at 37° C. for 15 minutes. Then, 10 μl of peptide stock solution (VIP or CNP) was added and the reaction mixture was incubated at 37° C. for 60 min. to allow enzymatic hydrolysis. The enzymatic reaction was subsequently terminated by heating to 95° C. for 5 min. After centrifugation (Heraeus Biofuge B, 3 min) the supernatant was subjected to HPLC. In order to separate the remaining substrate from the cleavage products, a reversed phase HPLC technique with a CC 125/4 Nucleosil 300/5 C18 RP column and a CC 8/4 Nucleosil 100/5 C18 precolumn (Macherey-Nagel, Düren, Germany) was used. 60 μl of the reaction samples were injected into the HPLC and the column was eluted at a flow rate of 1 ml/min with the following gradient:
All peptides were detected by absorbance at 214 nm (UV spectroscopy). The percentage (=%) of hydrolysis was calculated on the basis of the peak area of the undegraded peptide for an enzyme containing sample Y in correlation to a sample containing the same concentration of peptide without enzyme (blank) by the following equation: % hydrolysis=100*(blank−Y)
Basis of the calculation of % inhibition is the peak area of the undegraded peptide (VIP or CNP) for an inhibitor containing sample X in comparison to samples containing only peptide (blank) or peptide and enzyme without inhibitor (control) according to the following equation: % inhib=100*(X−control)/(blank−control)
All samples were run in duplicate and mean values were used. A solvent control (0.1% DMSO) was added to each assay run. CNP and VIP were cleaved by NEP and hSEP in vitro.

Data set [2] in a line: Plasma protein binding, equilibrium dialysis, rat plasma. Type of data set: in vitro ADME. The settings on record: rat plasma (10% for routine testing), 37° C., pH 7.4, 10% plasma (100% for low binders), read-out: % bound (rat plasma) (converted). The protocol: (§1) Plasma protein binding of the test substances of Formula I was measured using a validated equilibrium dialysis method. The dialysis cells consisted of two halves separated by a semi-permeable membrane slightly tensioned in between. […] Before being used, the membranes were re-hydrated by soaking in water followed by the dialysis buffer. Plasma (10% for routine testing, and 100% for compounds found to have a low protein binding) was heated to 37° C. and adjusted to pH 7.4 before use. 5 μM test compound solutions (final dimethylsulfoxide concentration 0.5%) were prepared in isotonic phosphate buffer containing rat or human plasma. The plasma-containing solution was on one side of the membrane, and the plasma-free on the other. Incubations were performed overnight (10% plasma assay), or for 2 hours (100% plasma assay) in triplicate. The cells were mounted in a drive unit that rotated the cells and ensured a uniform equilibrium was obtained. The equilibrium was temperature controlled by the drive unit being immersed in a water bath at 37° C. At the end of the equilibration time, the cells were emptied. The solutions for each batch of compounds were combined into two groups (plasma-free and plasma-containing) then cassette analysed by LC-MS/MS using two sets of calibration standards for plasma-free (7 points) and plasma-containing solutions (6 points). The percentage of protein bound compound was calculated as follows: [formula] PC=sample concentration in protein containing side; PF=sample concentration in protein free side;
In general terms: In equilibrium dialysis only unbound substance equilibrates across the membrane.

Data set [3] concerns maximal SAP response to Big-ET. Description: In vivo i.v. potency (ID50) to inhibit maximal SAP response to Big-ET in anesthetized rats. Set-up: species or system Rats (Sprague-Dawley). The settings on record: Rattus norvegicus, iv, dose at which the pressor effect of Big-ET was suppressed by 50%. The protocol:
(§2) Rats (Sprague-Dawley, CRLD=Charles River) were anaesthetised with 1 ml/kg Rompun/Ketavet 1:1. A pressure transducer (Statham) was inserted into the carotid artery to measure blood pressure.
For intravenous testing, one jugular vein was cannulated for administering the substance, and the other for administering Big-ET-1. […] Five minutes later, 0.5 nmol/kg Big-ET-1 was infused over a period of one minute. SAP, DAP, and heart rate were measured before administration of the substance, then before administration of Big-ET, and subsequently every five minutes after Big-ET administration over a period of 30 minutes using the pressure transducer in known manner. The maximum Big-ET-induced increase in blood pressure was calculated from the measured values as the difference between the value measured at the moment of maximum development of the Big-ET action (typically after 5 min) and the value measured before Big-ET infusion. The dose at which the pressor effect of Big-ET was suppressed by 50% (ID50) was estimated from the inhibitory effects observed over the range of dosages tested (n>5 rats for each dose).
The intravenous potency of the test compounds of Formula I (given as ID50 values) to inhibit the maximal SAP response to Big ET in anesthetized rats is set forth in the following Table 3b: […]

A short description of data set [4]: Plasma protein binding, equilibrium dialysis, human plasma. Type of data set: in vitro ADME. The settings on record: human plasma (10% for routine testing), 37° C., pH 7.4, 10% plasma (100% for low binders), read-out: % bound (human plasma) (converted). The protocol: as §1
The target of data set [5] is T2, soluble, human recombinant NEP (Homo sapiens, UniProt P08473).
T2 construct: soluble, human recombinant NEP; purchased Prof; Crine, University of Montreal, Canada
T2 sequence (P08473 52-750 limits assumed): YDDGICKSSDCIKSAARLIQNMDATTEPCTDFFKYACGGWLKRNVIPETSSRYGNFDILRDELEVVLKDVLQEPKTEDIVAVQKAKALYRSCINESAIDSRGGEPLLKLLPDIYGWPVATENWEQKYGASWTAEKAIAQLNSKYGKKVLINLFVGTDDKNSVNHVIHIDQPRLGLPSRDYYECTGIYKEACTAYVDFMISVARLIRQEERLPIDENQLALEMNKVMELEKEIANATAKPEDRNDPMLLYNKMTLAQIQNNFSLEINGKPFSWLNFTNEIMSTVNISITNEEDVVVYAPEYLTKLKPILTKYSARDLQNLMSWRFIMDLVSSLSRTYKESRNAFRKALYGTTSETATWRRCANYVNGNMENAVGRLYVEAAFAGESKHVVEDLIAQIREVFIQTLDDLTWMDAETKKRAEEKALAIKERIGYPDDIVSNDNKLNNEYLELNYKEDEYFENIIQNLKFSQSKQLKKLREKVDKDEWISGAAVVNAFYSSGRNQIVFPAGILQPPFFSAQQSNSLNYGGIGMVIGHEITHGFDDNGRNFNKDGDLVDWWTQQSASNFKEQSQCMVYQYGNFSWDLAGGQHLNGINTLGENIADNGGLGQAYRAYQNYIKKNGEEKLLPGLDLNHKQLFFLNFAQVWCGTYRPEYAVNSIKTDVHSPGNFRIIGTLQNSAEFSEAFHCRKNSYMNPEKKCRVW
The experiment in a line: In-vitro investigation of the NEP inhibitory action (fluorescence-quenched Big-ET-1 analogue, HPLC). Type of data set: biochemical. An outline of the steps:
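Enzyme preincubated with test substance 15 min at 37° C, then incubated with fluorescence-quenched Mca peptide substrate 60 min at 37° C and stopped by heating to 95° C. Cleaved and intact peptide separated by reversed-phase HPLC; unquenched Mca peak area (ex 328/em 393 nm) gave % inhibition versus no-compound control, duplicates, IC50 derived.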

The target in data set [6] is T3, His6-tagged hSEP ectodomain (Homo sapiens, UniProt Q495T6).
T3 construct: His6-tagged hSEP ectodomain; His6; purchased Innogenetics, Ghent, Belgium
T3 sequence (Q495T6 49-779 limits assumed): T1 sequence (Q495T6 49-779 limits assumed)
The experiment in a line: In vitro investigation of the hSEP-inhibitory action (fluorescence-quenched Big-ET-1 analogue, HPLC). The class given is biochemical. An outline of the steps: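 Performed as for the NEP assay, with HPLC analysis and 10 nM phosphoramidon as the standard inhibitor. IC50 is the compound concentration blocking 50% of hSEP enzymatic activity.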

In data set [7] the test system is maximal SAP response to Big-ET. The experiment in a line: In vivo inhibition of maximal SAP response to Big-ET in anesthetized rats after oral administration. Set-up: species or system Rats (Sprague-Dawley). The settings on record: oral by gavage, 100 μmol/kg, 1 h before Big-ET challenge; mean ± standard error; negative = inhibition. The protocol:
as §2
For oral testing, the substances (or vehicle) were given by gavage at doses of 100 μmol/kg each, 1 h before the Big-ET challenge, and blood pressure and heart rate were monitored as described above.
The inhibition of maximal SAP response to Big-ET in anesthetized rats following oral administration of the test substances of Formula I is set forth in the following Table 3c: […]
Data given in table 3c as negative values indicate an inhibitory effect. Values are means from 3-6 independent series of experiments ±standard error.

Experimental findings from US20080085889A1, “Amidomethyl-Substituted 1-(Carboxyalkyl) Cyclopentyl-Carbonylamino-Benzazepine-N-Acetic Acid Compounds, Process and Intermediate Products for Their Preparation and Pharmaceutical Compositions Containing Them” (SOLVAY PHARMACEUTICALS GmbH, priority 2003, published 2008) are described below.

With “VIP: vasoactive intestinal peptide, substrate of NEP and hSEP; supplier Bachem [reference compound]”, the “breakdown of VIP by hSEP, degradation at t = 2 h” value in data set [1] came out at 36%.

Take `CC(C)N(C)C(=O)CC(CC1(C(=O)N[C@H]2CCc3ccccc3N(CC(=O)O)C2=O)CCCC1)C(=O)O` (single isomer, unassigned) [Example 63]: the fraction unbound at 5 μM in data set [2] was 0.31; in data set [4], 0.6. The 50% effect level in data set [3] (ED50) was put at a dose of 0.08 µmol/kg. In data set [5], the IC50 (usually the concentration needed to halve the response being measured) stood at 9 nM.

As to `CCN(CCCN)C(=O)CC(CC1(C(=O)NC2CCc3ccccc3N(CC(=O)O)C2=O)CCCC1)C(=O)O` (centres unmarked) [Example 80, 4-[(3-aminopropyl)(ethyl)amino]-2-{[1-({[1-(carboxymethyl)-2-oxo-2,3,4,5-tetrahydro-1H-1-benzazepin-3-yl]amino}carbonyl)cyclopentyl]methyl}-4-oxobutanoic acid], the fraction unbound at 5 μM in data set [2] is 0.73; in data set [4], 0.66. Further, the IC50 in data set [6] is 3 nM; in data set [5], 16 nM. Further, the “% substance-related inhibition of the maximum Big-ET effect on SAP vs. control” value in data set [7] is −43 ± 5%.

Turning to “CNP: c-type natriuretic peptide, CNP (32-53), substrate of NEP and hSEP; supplier Bachem [reference compound]”, the “breakdown of CNP by hSEP, degradation at t = 2 h” value in data set [1] came out at 46%.
